The values that follow come from PubChem BioAssay (NCI).

Test systems include A549 NSCLC; NCI-H522 lung; 786-0 renal; CAKI-1 renal; SK-OV-3 ovarian; OVCAR-5 ovarian; SK-MEL-5 melanoma; HCT-15 colon; HL-60(TB) leukemia; HCC-2998 colon; NCI-H460 lung.
Assay in all cases: DTP human tumour cell line panel, 48 h

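Five compound concentrations were applied to cells in 96-well plates for 48 hours; endpoints were derived by simple linear interpolation of the resulting dose-response curve. TGI is the concentration that stops growth completely.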 A value given as a limit tells only on which side of the number the result lay.

As to `Cc1cc(S(=O)(=O)Nc2nc(N)nc(N(C)C)n2)c(SC(C(=O)O)c2ccccc2)cc1Cl` (configuration not stated), the TGI with A549 NSCLC, with NCI-H522 lung, in the experiment with 786-0 renal, in the experiment on CAKI-1 renal, in the experiment on SK-OV-3 ovarian and in the experiment on OVCAR-5 ovarian was greater than 10 µM each time. The TGI with SK-MEL-5 melanoma, in the experiment on HCT-15 colon, with HL-60(TB) leukemia, in the experiment with HCC-2998 colon and with NCI-H460 lung was greater than 10 µM in each case.

On to `CCN(CC)c1nc(=O)c(C(=O)C(C)(C)C)c(C(C)(C)C)o1`, for which the TGI in the experiment with A549 NSCLC, with NCI-H522 lung, in the experiment on 786-0 renal, in the experiment with CAKI-1 renal, in the experiment with SK-OV-3 ovarian and in the experiment on OVCAR-5 ovarian was greater than 100 µM throughout. The TGI in the experiment with SK-MEL-5 melanoma, in the experiment with HCT-15 colon, with HL-60(TB) leukemia, in the experiment on HCC-2998 colon and in the experiment with NCI-H460 lung was greater than 100 µM each time.

As for `CN1CC(S(=O)(=O)c2ccccc2)CC(S(=O)(=O)c2ccccc2)C1c1ccccc1` (configuration not stated), the TGI (in general, the concentration at which net growth stops) in the experiment on A549 NSCLC was greater than 100 µM; in the experiment on NCI-H522 lung it was 13.1 µM; in the experiment on 786-0 renal, 25.5 µM; in the experiment on CAKI-1 renal, 26 µM; in the experiment on SK-OV-3 ovarian, greater than 100 µM; in the experiment with OVCAR-5 ovarian, 32.7 µM. The TGI in the experiment on SK-MEL-5 melanoma came to 28.6 µM; with HCT-15 colon, 32.2 µM; in the experiment with HL-60(TB) leukemia, 32.2 µM; with HCC-2998 colon, 30.3 µM; with NCI-H460 lung it was 49.4 µM.

Consider `O=c1[nH]cnc2c1ncn2C1SC(CO)C(O)C1O` (configuration not stated), for which the TGI with A549 NSCLC, in the experiment on NCI-H522 lung, in the experiment on 786-0 renal, in the experiment on CAKI-1 renal, in the experiment on SK-OV-3 ovarian and in the experiment with OVCAR-5 ovarian was greater than 100 µM each time. For the same compound, the TGI in the experiment on SK-MEL-5 melanoma, in the experiment with HCT-15 colon, in the experiment on HL-60(TB) leukemia, with HCC-2998 colon and in the experiment with NCI-H460 lung was greater than 100 µM in each case.

Consider `Nc1ccc(-c2nc3ccccc3s2)cc1I`, for which the TGI with A549 NSCLC, in the experiment with NCI-H522 lung, in the experiment with 786-0 renal, with CAKI-1 renal, in the experiment on SK-OV-3 ovarian and with OVCAR-5 ovarian was greater than 100 µM throughout. Moreover, the TGI in the experiment on SK-MEL-5 melanoma, with HCT-15 colon, with HL-60(TB) leukemia, in the experiment with HCC-2998 colon and in the experiment with NCI-H460 lung was greater than 100 µM in each case.

`N#Cc1c(-c2ccccc2)c(C#N)c(=S)n(C2OCC(O)C(O)C2O)c1N` (configuration not stated): the TGI with A549 NSCLC, in the experiment on NCI-H522 lung, with 786-0 renal, in the experiment on CAKI-1 renal, with SK-OV-3 ovarian and with OVCAR-5 ovarian was greater than 100 µM each time. In addition, the TGI in the experiment on SK-MEL-5 melanoma, in the experiment with HCT-15 colon, with HL-60(TB) leukemia, in the experiment on HCC-2998 colon and in the experiment with NCI-H460 lung was greater than 100 µM in each case.

On to `COC(=O)c1c2c(cc3c1CC1(C3)Cc3ccc4c(c3C1=O)CCC4)CCC2` (configuration not stated), for which the TGI was greater than 100 µM in the experiment with A549 NSCLC; 6.19 µM with NCI-H522 lung; greater than 56.1 µM with 786-0 renal; 21.2 µM in the experiment with CAKI-1 renal; greater than 77.4 µM in the experiment on SK-OV-3 ovarian; greater than 100 µM with OVCAR-5 ovarian. In addition, the TGI was 20.4 µM with SK-MEL-5 melanoma; greater than 100 µM in the experiment on HCT-15 colon; greater than 28.3 µM in the experiment with HL-60(TB) leukemia; 40.1 µM in the experiment with HCC-2998 colon; greater than 100 µM in the experiment with NCI-H460 lung.

As for `ClCCCC1COc2ccccc2O1` (configuration not stated), the TGI in the experiment with A549 NSCLC, in the experiment on NCI-H522 lung, in the experiment with 786-0 renal, in the experiment on CAKI-1 renal, in the experiment with SK-OV-3 ovarian and in the experiment on OVCAR-5 ovarian was greater than 100 µM throughout. In addition, the TGI in the experiment on SK-MEL-5 melanoma, in the experiment on HCT-15 colon, in the experiment with HL-60(TB) leukemia, in the experiment on HCC-2998 colon and in the experiment with NCI-H460 lung was greater than 100 µM each time.

On to `N#CC1C(=O)NC2=C(CCOc3c2ccc2ccccc32)C1c1ccc(F)cc1` (configuration not stated), for which the TGI was greater than 100 µM in the experiment with A549 NSCLC; greater than 100 µM in the experiment with NCI-H522 lung; 32.8 µM in the experiment with 786-0 renal; 71.4 µM in the experiment on CAKI-1 renal; 55 µM with SK-OV-3 ovarian; 71.9 µM in the experiment on OVCAR-5 ovarian. The TGI was 80.8 µM in the experiment with SK-MEL-5 melanoma; greater than 100 µM in the experiment with HCT-15 colon; greater than 100 µM with HL-60(TB) leukemia; 59.9 µM with HCC-2998 colon; greater than 100 µM in the experiment with NCI-H460 lung.

On to `CCN(CC)CCNc1ccc2ncn3c4c(OC)ccc(=O)c4c(O)c1c23`, for which the TGI in the experiment on A549 NSCLC was greater than 100 µM; in the experiment with NCI-H522 lung it was greater than 39.7 µM; with 786-0 renal, greater than 100 µM; in the experiment with CAKI-1 renal, greater than 100 µM; in the experiment with SK-OV-3 ovarian, greater than 100 µM; in the experiment with OVCAR-5 ovarian, greater than 92.7 µM. The TGI with SK-MEL-5 melanoma was greater than 39.6 µM; with HCT-15 colon it was greater than 100 µM; in the experiment with HL-60(TB) leukemia it was greater than 100 µM; with HCC-2998 colon, greater than 100 µM; in the experiment with NCI-H460 lung it was greater than 100 µM.

Turning to `O=C1CSC(c2ccccc2[N+](=O)[O-])N1c1ccc(-n2c(-c3ccccc3)nc3ccccc3c2=O)cc1` (configuration not stated), the TGI with A549 NSCLC is greater than 100 µM; in the experiment on NCI-H522 lung, greater than 100 µM; in the experiment on 786-0 renal, greater than 100 µM; with CAKI-1 renal, greater than 100 µM; in the experiment on SK-OV-3 ovarian it was 28.3 µM; in the experiment with OVCAR-5 ovarian, greater than 100 µM. Further, the TGI with SK-MEL-5 melanoma, with HCT-15 colon, in the experiment on HL-60(TB) leukemia, in the experiment on HCC-2998 colon and with NCI-H460 lung was greater than 100 µM each time.

As to `CN(C)C=Nc1c(Br)cc(Br)c2nonc12`, the TGI in the experiment on A549 NSCLC, in the experiment on NCI-H522 lung, in the experiment with 786-0 renal, with CAKI-1 renal, in the experiment with SK-OV-3 ovarian and in the experiment with OVCAR-5 ovarian was greater than 100 µM throughout. Also, the TGI in the experiment on SK-MEL-5 melanoma, in the experiment on HCT-15 colon, in the experiment with HL-60(TB) leukemia, in the experiment with HCC-2998 colon and in the experiment on NCI-H460 lung was greater than 100 µM in each case.

For the compound `Oc1c2c(c3c4c1N=CC=4CCN=3)C1(C=C(Br)C(O)C(Br)=C1)CCN2` (configuration not stated), the TGI in the experiment on A549 NSCLC stood at 12.5 µM; in the experiment with NCI-H522 lung, 0.818 µM; in the experiment with CAKI-1 renal it was 29.3 µM; in the experiment on SK-OV-3 ovarian it was 26 µM; with OVCAR-5 ovarian, 4.49 µM; in the experiment on SK-MEL-5 melanoma, 2.67 µM. Besides, the TGI in the experiment on HCT-15 colon is 4.42 µM; in the experiment with HL-60(TB) leukemia, 2.08 µM; in the experiment with HCC-2998 colon, 4.61 µM; in the experiment with NCI-H460 lung it was 8.47 µM.
